{"source": "patent US11083725B2", "about": "(priority 2014, dated 2021)", "test_system": "NHBE cells", "experiment": "Biolog metabolic array: substrate use by NHBE cells with or without CA09 infection", "type": "cell-based, human", "settings": "for Substrate use, 590 nm absorbance normalized to zero hour, 0 hr: Biolog PMM2, 0 hr; for Substrate use, 590 nm absorbance normalized to zero hour, 1 hr: Biolog PMM2, 1 hr; for Substrate use, 590 nm absorbance normalized to zero hour, 5 hr: Biolog PMM2, 5 hr; for Substrate use, 590 nm absorbance normalized to zero hour, 7 hr: Biolog PMM2, 7 hr", "key": {"[1]": {"settings": "Control (uninfected) NHBE cells"}, "[2]": {"settings": "Virus (CA09-infected, MOI 1) NHBE cells"}, "[3]": {"settings": "Virus: CA09-infected NHBE cells, MOI 1, Biolog PMM2"}, "[4]": {"settings": "Virus (CA09, MOI 1) infected NHBE cells"}}, "data": [{"smiles": "OC[C@@]12OC[C@@H](O1)[C@@H](O)[C@@H](O)[C@@H]2O", "note": "[Sedoheptulosan]", "values": [{"measurement": "590 nm absorbance normalized to zero hour (substrate use), 0 hr", "setting": "[1]", "value": 1.00}, {"measurement": "590 nm absorbance normalized to zero hour (substrate use), 1 hr", "setting": "[1]", "value": 0.31}, {"measurement": "590 nm absorbance normalized to zero hour (substrate use), 2 hr", "setting": "[1]", "value": 0.41}, {"measurement": "590 nm absorbance normalized to zero hour (substrate use), 3 hr", "setting": "[1]", "value": 0.44}, {"measurement": "590 nm absorbance normalized to zero hour (substrate use), 4 hr", "setting": "[1]", "value": 0.49}, {"measurement": "590 nm absorbance normalized to zero hour (substrate use), 6 hr", "setting": "[1]", "value": 0.56}, {"measurement": "590 nm absorbance normalized to zero hour (substrate use), 8 hr", "setting": "[1]", "value": 0.71}, {"measurement": "590 nm absorbance normalized to zero hour (substrate use), 9 hr", "setting": "[1]", "value": 0.82}, {"measurement": "590 nm absorbance normalized to zero hour (substrate use), 10 hr", "setting": "[1]", "value": 0.89}, {"measurement": "590 nm absorbance normalized to zero hour (substrate use), 11 hr", "setting": "[1]", "value": 1.46}, {"measurement": "Substrate use, 590 nm absorbance normalized to zero hour, 0 hr", "setting": "[1]", "value": 1.00}, {"measurement": "Substrate use, 590 nm absorbance normalized to zero hour, 1 hr", "setting": "[1]", "value": 0.31}, {"measurement": "Substrate use, 590 nm absorbance normalized to zero hour, 5 hr", "setting": "[1]", "value": 0.61}, {"measurement": "Substrate use, 590 nm absorbance normalized to zero hour, 7 hr", "setting": "[1]", "value": 0.71}, {"measurement": "590 nm absorbance normalized to zero hour (substrate use), 0 hr", "setting": "[2]", "value": 1.00}, {"measurement": "590 nm absorbance normalized to zero hour (substrate use), 1 hr", "setting": "[2]", "value": 1.49}, {"measurement": "590 nm absorbance normalized to zero hour (substrate use), 2 hr", "setting": "[2]", "value": 1.48}, {"measurement": "590 nm absorbance normalized to zero hour (substrate use), 3 hr", "setting": "[2]", "value": 1.46}, {"measurement": "590 nm absorbance normalized to zero hour (substrate use), 4 hr", "setting": "[2]", "value": 1.43}, {"measurement": "590 nm absorbance normalized to zero hour (substrate use), 5 hr", "setting": "[2]", "value": 1.30}, {"measurement": "590 nm absorbance normalized to zero hour (substrate use), 6 hr", "setting": "[2]", "value": 1.36}, {"measurement": "590 nm absorbance normalized to zero hour (substrate use), 7 hr", "setting": "[2]", "value": 1.39}, {"measurement": "590 nm absorbance normalized to zero hour (substrate use), 8 hr", "setting": "[2]", "value": 1.49}, {"measurement": "590 nm absorbance normalized to zero hour (substrate use), 9 hr", "setting": "[2]", "value": 1.58}, {"measurement": "590 nm absorbance normalized to zero hour (substrate use), 10 hr", "setting": "[2]", "value": 1.48}, {"measurement": "590 nm absorbance normalized to zero hour (substrate use), 11 hr", "setting": "[2]", "value": 1.65}, {"measurement": "590 nm absorbance normalized to zero hour (substrate use), 0 hr", "setting": "[3]", "value": 1.00}, {"measurement": "590 nm absorbance normalized to zero hour (substrate use), 1 hr", "setting": "[3]", "value": 1.49}, {"measurement": "590 nm absorbance normalized to zero hour (substrate use), 2 hr", "setting": "[3]", "value": 1.48}, {"measurement": "590 nm absorbance normalized to zero hour (substrate use), 3 hr", "setting": "[3]", "value": 1.46}, {"measurement": "590 nm absorbance normalized to zero hour (substrate use), 4 hr", "setting": "[3]", "value": 1.43}, {"measurement": "590 nm absorbance normalized to zero hour (substrate use), 5 hr", "setting": "[3]", "value": 1.30}, {"measurement": "590 nm absorbance normalized to zero hour (substrate use), 6 hr", "setting": "[3]", "value": 1.36}, {"measurement": "590 nm absorbance normalized to zero hour (substrate use), 7 hr", "setting": "[3]", "value": 1.39}, {"measurement": "590 nm absorbance normalized to zero hour (substrate use), 8 hr", "setting": "[3]", "value": 1.49}, {"measurement": "590 nm absorbance normalized to zero hour (substrate use), 9 hr", "setting": "[3]", "value": 1.58}, {"measurement": "590 nm absorbance normalized to zero hour (substrate use), 10 hr", "setting": "[3]", "value": 1.48}, {"measurement": "590 nm absorbance normalized to zero hour (substrate use), 11 hr", "setting": "[3]", "value": 1.65}]}, {"smiles": "OC[C@H]1O[C@H](OC[C@H]2O[C@H](OC[C@H]3O[C@H](O[C@]4(CO)O[C@H](CO)[C@@H](O)[C@@H]4O)[C@H](O)[C@@H](O)[C@@H]3O)[C@H](O)[C@@H](O)[C@H]2O)[C@H](O)[C@@H](O)[C@H]1O", "note": "[Stachyose]", "values": [{"measurement": "590 nm absorbance normalized to zero hour (substrate use), 0 hr", "setting": "[1]", "value": 1.00}, {"measurement": "590 nm absorbance normalized to zero hour (substrate use), 1 hr", "setting": "[1]", "value": 8.51}, {"measurement": "590 nm absorbance normalized to zero hour (substrate use), 2 hr", "setting": "[1]", "value": 8.20}, {"measurement": "590 nm absorbance normalized to zero hour (substrate use), 3 hr", "setting": "[1]", "value": 7.94}, {"measurement": "590 nm absorbance normalized to zero hour (substrate use), 4 hr", "setting": "[1]", "value": 8.00}, {"measurement": "590 nm absorbance normalized to zero hour (substrate use), 6 hr", "setting": "[1]", "value": 3.45}, {"measurement": "590 nm absorbance normalized to zero hour (substrate use), 8 hr", "setting": "[1]", "value": 3.67}, {"measurement": "590 nm absorbance normalized to zero hour (substrate use), 9 hr", "setting": "[1]", "value": 3.90}, {"measurement": "590 nm absorbance normalized to zero hour (substrate use), 10 hr", "setting": "[1]", "value": 9.13}, {"measurement": "590 nm absorbance normalized to zero hour (substrate use), 11 hr", "setting": "[1]", "value": 4.47}, {"measurement": "Substrate use, 590 nm absorbance normalized to zero hour, 0 hr", "setting": "[1]", "value": 1.00}, {"measurement": "Substrate use, 590 nm absorbance normalized to zero hour, 1 hr", "setting": "[1]", "value": 8.51}, {"measurement": "Substrate use, 590 nm absorbance normalized to zero hour, 5 hr", "setting": "[1]", "value": 3.55}, {"measurement": "Substrate use, 590 nm absorbance normalized to zero hour, 7 hr", "setting": "[1]", "value": 6.99}, {"measurement": "590 nm absorbance normalized to zero hour (substrate use), 0 hr", "setting": "[2]", "value": 1.00}, {"measurement": "590 nm absorbance normalized to zero hour (substrate use), 1 hr", "setting": "[2]", "value": 1.42}, {"measurement": "590 nm absorbance normalized to zero hour (substrate use), 2 hr", "setting": "[2]", "value": 1.76}, {"measurement": "590 nm absorbance normalized to zero hour (substrate use), 3 hr", "setting": "[2]", "value": 1.96}, {"measurement": "590 nm absorbance normalized to zero hour (substrate use), 4 hr", "setting": "[2]", "value": 2.07}, {"measurement": "590 nm absorbance normalized to zero hour (substrate use), 5 hr", "setting": "[2]", "value": 4.65}, {"measurement": "590 nm absorbance normalized to zero hour (substrate use), 6 hr", "setting": "[2]", "value": 5.10}, {"measurement": "590 nm absorbance normalized to zero hour (substrate use), 7 hr", "setting": "[2]", "value": 3.71}, {"measurement": "590 nm absorbance normalized to zero hour (substrate use), 8 hr", "setting": "[2]", "value": 3.40}, {"measurement": "590 nm absorbance normalized to zero hour (substrate use), 9 hr", "setting": "[2]", "value": 3.17}, {"measurement": "590 nm absorbance normalized to zero hour (substrate use), 10 hr", "setting": "[2]", "value": 2.89}, {"measurement": "590 nm absorbance normalized to zero hour (substrate use), 11 hr", "setting": "[2]", "value": 4.13}, {"measurement": "590 nm absorbance normalized to zero hour (substrate use), 0 hr", "setting": "[3]", "value": 1.00}, {"measurement": "590 nm absorbance normalized to zero hour (substrate use), 1 hr", "setting": "[3]", "value": 1.42}, {"measurement": "590 nm absorbance normalized to zero hour (substrate use), 2 hr", "setting": "[3]", "value": 1.76}, {"measurement": "590 nm absorbance normalized to zero hour (substrate use), 3 hr", "setting": "[3]", "value": 1.96}, {"measurement": "590 nm absorbance normalized to zero hour (substrate use), 4 hr", "setting": "[3]", "value": 2.07}, {"measurement": "590 nm absorbance normalized to zero hour (substrate use), 5 hr", "setting": "[3]", "value": 4.65}, {"measurement": "590 nm absorbance normalized to zero hour (substrate use), 6 hr", "setting": "[3]", "value": 5.10}, {"measurement": "590 nm absorbance normalized to zero hour (substrate use), 7 hr", "setting": "[3]", "value": 3.71}, {"measurement": "590 nm absorbance normalized to zero hour (substrate use), 8 hr", "setting": "[3]", "value": 3.40}, {"measurement": "590 nm absorbance normalized to zero hour (substrate use), 9 hr", "setting": "[3]", "value": 3.17}, {"measurement": "590 nm absorbance normalized to zero hour (substrate use), 10 hr", "setting": "[3]", "value": 2.89}, {"measurement": "590 nm absorbance normalized to zero hour (substrate use), 11 hr", "setting": "[3]", "value": 4.13}]}, {"smiles": "NC(=O)CCC(=O)O", "note": "[Succinamic Acid]", "values": [{"measurement": "590 nm absorbance normalized to zero hour (substrate use), 1 hr", "setting": "[1]", "value": 1.11}, {"measurement": "590 nm absorbance normalized to zero hour (substrate use), 2 hr", "setting": "[1]", "value": 0.37}, {"measurement": "590 nm absorbance normalized to zero hour (substrate use), 3 hr", "setting": "[1]", "value": 0.42}, {"measurement": "590 nm absorbance normalized to zero hour (substrate use), 4 hr", "setting": "[1]", "value": 0.42}, {"measurement": "590 nm absorbance normalized to zero hour (substrate use), 6 hr", "setting": "[1]", "value": 0.44}, {"measurement": "590 nm absorbance normalized to zero hour (substrate use), 8 hr", "setting": "[1]", "value": 0.51}, {"measurement": "590 nm absorbance normalized to zero hour (substrate use), 9 hr", "setting": "[1]", "value": 0.54}, {"measurement": "590 nm absorbance normalized to zero hour (substrate use), 10 hr", "setting": "[1]", "value": 0.56}, {"measurement": "590 nm absorbance normalized to zero hour (substrate use), 11 hr", "setting": "[1]", "value": 0.61}, {"measurement": "Substrate use, 590 nm absorbance normalized to zero hour, 1 hr", "setting": "[1]", "value": 1.11}, {"measurement": "Substrate use, 590 nm absorbance normalized to zero hour, 5 hr", "setting": "[1]", "value": 0.45}, {"measurement": "Substrate use, 590 nm absorbance normalized to zero hour, 7 hr", "setting": "[1]", "value": 0.50}, {"measurement": "Substrate use, 590 nm absorbance normalized to zero hour, 1 hr", "setting": "[4]", "value": 1.45}, {"measurement": "Substrate use, 590 nm absorbance normalized to zero hour, 5 hr", "setting": "[4]", "value": 2.03}, {"measurement": "Substrate use, 590 nm absorbance normalized to zero hour, 7 hr", "setting": "[4]", "value": 2.22}, {"measurement": "590 nm absorbance normalized to zero hour (substrate use), 1 hr", "setting": "[2]", "value": 1.45}, {"measurement": "590 nm absorbance normalized to zero hour (substrate use), 2 hr", "setting": "[2]", "value": 1.65}, {"measurement": "590 nm absorbance normalized to zero hour (substrate use), 3 hr", "setting": "[2]", "value": 1.88}, {"measurement": "590 nm absorbance normalized to zero hour (substrate use), 4 hr", "setting": "[2]", "value": 1.85}, {"measurement": "590 nm absorbance normalized to zero hour (substrate use), 6 hr", "setting": "[2]", "value": 2.14}, {"measurement": "590 nm absorbance normalized to zero hour (substrate use), 8 hr", "setting": "[2]", "value": 2.30}, {"measurement": "590 nm absorbance normalized to zero hour (substrate use), 9 hr", "setting": "[2]", "value": 2.41}, {"measurement": "590 nm absorbance normalized to zero hour (substrate use), 10 hr", "setting": "[2]", "value": 2.37}, {"measurement": "590 nm absorbance normalized to zero hour (substrate use), 11 hr", "setting": "[2]", "value": 2.51}]}]}
